#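 Five concentrations, 48 hours, 96-well plates. TGI marks complete inhibition of growth.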
# Legend:
# Assay in all cases: NCI tumour cell line growth inhibition, 48 h
# 786-0 renal = system: 786-0 renal
# A549 NSCLC = system: A549 NSCLC
# ACHN renal = system: ACHN renal
# BT-549 breast = system: BT-549 breast
# CAKI-1 renal = system: CAKI-1 renal
# CCRF-CEM leukemia = system: CCRF-CEM leukemia
# COLO 205 colon = system: COLO 205 colon
# DU-145 prostate = system: DU-145 prostate
# EKVX NSCLC = system: EKVX NSCLC
# HCC-2998 colon = system: HCC-2998 colon
# HCT-116 colon = system: HCT-116 colon
# HCT-15 colon = system: HCT-15 colon
# HOP-62 NSCLC = system: HOP-62 NSCLC
# HOP-92 NSCLC = system: HOP-92 NSCLC
# HS 578T breast = system: HS 578T breast
# HT29 colon = system: HT29 colon
# IGROV1 ovarian = system: IGROV1 ovarian
# K-562 leukemia = system: K-562 leukemia
# KM12 colon = system: KM12 colon
# LOX IMVI melanoma = system: LOX IMVI melanoma
# M14 melanoma = system: M14 melanoma
# MALME-3M melanoma = system: MALME-3M melanoma
# MCF7 breast = system: MCF7 breast
# MDA-MB-231 breast = system: MDA-MB-231 breast
# MDA-MB-435 = system: MDA-MB-435
# MDA-N = system: MDA-N
# MOLT-4 leukemia = system: MOLT-4 leukemia
# NCI-H23 lung = system: NCI-H23 lung
# NCI-H460 lung = system: NCI-H460 lung
# NCI-H522 lung = system: NCI-H522 lung
# NCI/ADR-RES ovarian = system: NCI/ADR-RES ovarian
# OVCAR-3 ovarian = system: OVCAR-3 ovarian
# OVCAR-4 ovarian = system: OVCAR-4 ovarian
# OVCAR-5 ovarian = system: OVCAR-5 ovarian
# OVCAR-8 ovarian = system: OVCAR-8 ovarian
# PC-3 prostate = system: PC-3 prostate
# RXF 393 renal = system: RXF 393 renal
# SF-268 CNS = system: SF-268 CNS
# SF-295 CNS = system: SF-295 CNS
# SK-MEL-2 melanoma = system: SK-MEL-2 melanoma
# SK-MEL-28 melanoma = system: SK-MEL-28 melanoma
# SK-MEL-5 melanoma = system: SK-MEL-5 melanoma
# SK-OV-3 ovarian = system: SK-OV-3 ovarian
# SN12C renal = system: SN12C renal
# SNB-19 CNS = system: SNB-19 CNS
# SNB-75 CNS = system: SNB-75 CNS
# SW-620 colon = system: SW-620 colon
# T-47D breast = system: T-47D breast
# TK-10 renal = system: TK-10 renal
# U251 CNS = system: U251 CNS
# UACC-257 melanoma = system: UACC-257 melanoma
# UACC-62 melanoma = system: UACC-62 melanoma
# UO-31 renal = system: UO-31 renal
# HL-60(TB) leukemia = system: HL-60(TB) leukemia
# NCI-H226 lung = system: NCI-H226 lung
# RPMI-8226 leukemia = system: RPMI-8226 leukemia
# SF-539 CNS = system: SF-539 CNS
# SR leukemia = system: SR leukemia
# A498 renal = system: A498 renal
structure (smiles),measurement,setting,value
COc1ccc(-c2c(/C=N/OCC(=O)O)c3sc4ccccc4n3c2/C=N/OCC(=O)O)cc1,TGI,786-0 renal,> 50 µM
same,TGI,A549 NSCLC,> 50 µM
same,TGI,ACHN renal,> 50 µM
same,TGI,BT-549 breast,> 50 µM
same,TGI,CAKI-1 renal,> 50 µM
same,TGI,CCRF-CEM leukemia,> 50 µM
same,TGI,COLO 205 colon,> 50 µM
same,TGI,DU-145 prostate,> 50 µM
same,TGI,EKVX NSCLC,> 50 µM
same,TGI,HCC-2998 colon,> 50 µM
same,TGI,HCT-116 colon,> 50 µM
same,TGI,HCT-15 colon,> 50 µM
same,TGI,HOP-62 NSCLC,> 50 µM
same,TGI,HOP-92 NSCLC,> 50 µM
same,TGI,HS 578T breast,> 50 µM
same,TGI,HT29 colon,> 50 µM
same,TGI,IGROV1 ovarian,> 50 µM
same,TGI,K-562 leukemia,> 50 µM
same,TGI,KM12 colon,> 50 µM
same,TGI,LOX IMVI melanoma,> 50 µM
same,TGI,M14 melanoma,> 50 µM
same,TGI,MALME-3M melanoma,> 50 µM
same,TGI,MCF7 breast,> 50 µM
same,TGI,MDA-MB-231 breast,> 50 µM
same,TGI,MDA-MB-435,> 50 µM
same,TGI,MDA-N,> 50 µM
same,TGI,MOLT-4 leukemia,> 50 µM
same,TGI,NCI-H23 lung,> 50 µM
same,TGI,NCI-H460 lung,> 50 µM
same,TGI,NCI-H522 lung,> 50 µM
same,TGI,NCI/ADR-RES ovarian,> 50 µM
same,TGI,OVCAR-3 ovarian,> 50 µM
same,TGI,OVCAR-4 ovarian,> 50 µM
same,TGI,OVCAR-5 ovarian,> 50 µM
same,TGI,OVCAR-8 ovarian,> 50 µM
same,TGI,PC-3 prostate,> 50 µM
same,TGI,RXF 393 renal,> 50 µM
same,TGI,SF-268 CNS,> 50 µM
same,TGI,SF-295 CNS,> 50 µM
same,TGI,SK-MEL-2 melanoma,> 50 µM
same,TGI,SK-MEL-28 melanoma,> 50 µM
same,TGI,SK-MEL-5 melanoma,> 50 µM
same,TGI,SK-OV-3 ovarian,> 50 µM
same,TGI,SN12C renal,> 50 µM
same,TGI,SNB-19 CNS,> 50 µM
same,TGI,SNB-75 CNS,> 50 µM
same,TGI,SW-620 colon,> 50 µM
same,TGI,T-47D breast,> 50 µM
same,TGI,TK-10 renal,> 50 µM
same,TGI,U251 CNS,> 50 µM
same,TGI,UACC-257 melanoma,> 50 µM
same,TGI,UACC-62 melanoma,> 50 µM
same,TGI,UO-31 renal,> 50 µM
O=C(Oc1cncc(Cl)c1)c1cc2ccccc2sc1=O,TGI,786-0 renal,> 100 µM
same,TGI,A549 NSCLC,> 100 µM
same,TGI,ACHN renal,> 100 µM
same,TGI,BT-549 breast,> 100 µM
same,TGI,CAKI-1 renal,> 100 µM
same,TGI,COLO 205 colon,> 100 µM
same,TGI,DU-145 prostate,> 100 µM
same,TGI,EKVX NSCLC,> 100 µM
same,TGI,HCC-2998 colon,> 100 µM
same,TGI,HCT-116 colon,> 100 µM
same,TGI,HCT-15 colon,> 100 µM
same,TGI,HL-60(TB) leukemia,> 100 µM
same,TGI,HOP-62 NSCLC,> 100 µM
same,TGI,HOP-92 NSCLC,> 100 µM
same,TGI,HS 578T breast,> 100 µM
same,TGI,HT29 colon,> 100 µM
same,TGI,IGROV1 ovarian,> 100 µM
same,TGI,K-562 leukemia,> 100 µM
same,TGI,KM12 colon,> 100 µM
same,TGI,LOX IMVI melanoma,> 100 µM
same,TGI,M14 melanoma,> 100 µM
same,TGI,MALME-3M melanoma,> 100 µM
same,TGI,MCF7 breast,> 100 µM
same,TGI,MDA-MB-231 breast,> 100 µM
same,TGI,MDA-MB-435,> 100 µM
same,TGI,MDA-N,> 100 µM
same,TGI,MOLT-4 leukemia,90 µM
same,TGI,NCI-H226 lung,57.1 µM
same,TGI,NCI-H23 lung,> 100 µM
same,TGI,NCI-H460 lung,> 100 µM
same,TGI,NCI-H522 lung,47.3 µM
same,TGI,NCI/ADR-RES ovarian,> 100 µM
same,TGI,OVCAR-3 ovarian,> 100 µM
same,TGI,OVCAR-4 ovarian,> 100 µM
same,TGI,OVCAR-5 ovarian,> 100 µM
same,TGI,OVCAR-8 ovarian,> 100 µM
same,TGI,PC-3 prostate,> 100 µM
same,TGI,RPMI-8226 leukemia,> 100 µM
same,TGI,RXF 393 renal,91.1 µM
same,TGI,SF-268 CNS,> 100 µM
same,TGI,SF-295 CNS,> 100 µM
same,TGI,SF-539 CNS,57.9 µM
same,TGI,SK-MEL-2 melanoma,90.7 µM
same,TGI,SK-MEL-28 melanoma,> 100 µM
same,TGI,SK-MEL-5 melanoma,> 100 µM
same,TGI,SK-OV-3 ovarian,> 100 µM
same,TGI,SN12C renal,> 100 µM
same,TGI,SNB-19 CNS,> 100 µM
same,TGI,SNB-75 CNS,> 100 µM
same,TGI,SR leukemia,76.8 µM
same,TGI,SW-620 colon,> 100 µM
same,TGI,T-47D breast,> 100 µM
same,TGI,TK-10 renal,> 100 µM
same,TGI,U251 CNS,> 100 µM
same,TGI,UACC-257 melanoma,> 100 µM
same,TGI,UACC-62 melanoma,> 100 µM
same,TGI,UO-31 renal,> 100 µM
CN(C)Cc1cc(/C=C/C(=O)c2ccc(Br)cc2)cc(CN(C)C)c1O,TGI,786-0 renal,29.9 µM
same,TGI,A498 renal,27.7 µM
same,TGI,A549 NSCLC,> 100 µM
same,TGI,ACHN renal,24.7 µM
same,TGI,BT-549 breast,34.4 µM
same,TGI,CAKI-1 renal,23.8 µM
same,TGI,CCRF-CEM leukemia,25.4 µM
same,TGI,COLO 205 colon,30.1 µM
same,TGI,DU-145 prostate,33.7 µM
same,TGI,EKVX NSCLC,55.2 µM
same,TGI,HCC-2998 colon,27.8 µM
same,TGI,HCT-116 colon,29 µM
same,TGI,HL-60(TB) leukemia,50.6 µM
same,TGI,HOP-62 NSCLC,> 100 µM
same,TGI,HT29 colon,62.4 µM
same,TGI,IGROV1 ovarian,23.4 µM
same,TGI,K-562 leukemia,> 100 µM
same,TGI,KM12 colon,29.6 µM
same,TGI,M14 melanoma,> 100 µM
same,TGI,MALME-3M melanoma,31.6 µM
same,TGI,MCF7 breast,50.5 µM
same,TGI,MDA-MB-231 breast,40 µM
same,TGI,MDA-MB-435,36.8 µM
same,TGI,MDA-N,32.6 µM
same,TGI,MOLT-4 leukemia,42.9 µM
same,TGI,NCI-H460 lung,42.6 µM
same,TGI,NCI/ADR-RES ovarian,> 100 µM
same,TGI,OVCAR-3 ovarian,71.4 µM
same,TGI,OVCAR-5 ovarian,> 100 µM
same,TGI,OVCAR-8 ovarian,> 100 µM
same,TGI,PC-3 prostate,> 100 µM
same,TGI,RPMI-8226 leukemia,26.5 µM
same,TGI,RXF 393 renal,74.5 µM
same,TGI,SF-268 CNS,33.4 µM
same,TGI,SF-295 CNS,38.7 µM
same,TGI,SF-539 CNS,29.1 µM
same,TGI,SK-MEL-2 melanoma,90.5 µM
same,TGI,SK-MEL-28 melanoma,34.9 µM
same,TGI,SK-MEL-5 melanoma,40 µM
same,TGI,SK-OV-3 ovarian,55.1 µM
same,TGI,SN12C renal,32.3 µM
same,TGI,SNB-19 CNS,48.2 µM
same,TGI,SNB-75 CNS,43.7 µM
same,TGI,SW-620 colon,52 µM
same,TGI,T-47D breast,35.4 µM
same,TGI,TK-10 renal,25.7 µM
same,TGI,UACC-257 melanoma,33.7 µM
same,TGI,UACC-62 melanoma,39.1 µM
same,TGI,UO-31 renal,23.2 µM
CC(C)C(Br)C(=O)NCC(=O)O (configuration not stated),TGI,786-0 renal,> 100 µM
same,TGI,A498 renal,> 100 µM
same,TGI,A549 NSCLC,> 100 µM
same,TGI,ACHN renal,> 100 µM
same,TGI,BT-549 breast,> 100 µM
same,TGI,CAKI-1 renal,> 100 µM
same,TGI,CCRF-CEM leukemia,> 100 µM
same,TGI,COLO 205 colon,> 100 µM
same,TGI,DU-145 prostate,> 100 µM
same,TGI,EKVX NSCLC,> 100 µM
same,TGI,HCT-116 colon,> 100 µM
same,TGI,HCT-15 colon,> 100 µM
same,TGI,HL-60(TB) leukemia,> 100 µM
same,TGI,HOP-62 NSCLC,> 100 µM
same,TGI,HOP-92 NSCLC,> 100 µM
same,TGI,HS 578T breast,> 100 µM
same,TGI,HT29 colon,> 100 µM
same,TGI,IGROV1 ovarian,> 100 µM
same,TGI,K-562 leukemia,> 100 µM
same,TGI,KM12 colon,> 100 µM
same,TGI,LOX IMVI melanoma,> 100 µM
same,TGI,M14 melanoma,> 100 µM
same,TGI,MALME-3M melanoma,> 100 µM
same,TGI,MCF7 breast,> 100 µM
same,TGI,MDA-MB-231 breast,> 100 µM
same,TGI,MDA-MB-435,> 100 µM
same,TGI,MDA-N,> 100 µM
same,TGI,MOLT-4 leukemia,> 100 µM
same,TGI,NCI-H226 lung,> 100 µM
same,TGI,NCI-H23 lung,> 100 µM
same,TGI,NCI-H460 lung,> 100 µM
same,TGI,NCI-H522 lung,> 100 µM
same,TGI,NCI/ADR-RES ovarian,> 100 µM
same,TGI,OVCAR-3 ovarian,> 100 µM
same,TGI,OVCAR-4 ovarian,> 100 µM
same,TGI,OVCAR-5 ovarian,> 100 µM
same,TGI,OVCAR-8 ovarian,> 100 µM
same,TGI,PC-3 prostate,> 100 µM
same,TGI,RPMI-8226 leukemia,> 100 µM
same,TGI,RXF 393 renal,> 100 µM
same,TGI,SF-268 CNS,> 100 µM
same,TGI,SF-295 CNS,> 100 µM
same,TGI,SF-539 CNS,> 100 µM
same,TGI,SK-MEL-2 melanoma,> 100 µM
same,TGI,SK-MEL-28 melanoma,> 100 µM
same,TGI,SK-MEL-5 melanoma,> 100 µM
same,TGI,SK-OV-3 ovarian,> 100 µM
same,TGI,SN12C renal,> 100 µM
same,TGI,SNB-19 CNS,> 100 µM
same,TGI,SNB-75 CNS,> 100 µM
same,TGI,SR leukemia,> 100 µM
same,TGI,SW-620 colon,> 100 µM
same,TGI,T-47D breast,> 100 µM
same,TGI,TK-10 renal,> 100 µM
same,TGI,U251 CNS,> 100 µM
same,TGI,UACC-257 melanoma,> 100 µM
same,TGI,UACC-62 melanoma,> 100 µM
same,TGI,UO-31 renal,> 100 µM
